This passage reports GI50 and TGI results from PubChem BioAssay (NCI).

Holding throughout (assay): NCI tumour cell line growth inhibition, 48 h
Test [1] deals with SK-MEL-5 melanoma.
Test [2] has as its system UACC-257 melanoma.
Test [3] concerns HOP-62 NSCLC.
Test [4] deals with HCT-116 colon.
The test system of test [5] is KM12 colon.
Test [6] relates to UO-31 renal.
The subject of test [7] is HCC-2998 colon.
Test [8] relates to MOLT-4 leukemia.
For test [9], the system named is M14 melanoma.

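1) Cells in 96-well plates. 2) Compound, 48 h, 5 concentrations. 3) Linear interpolation between surrounding doses. 4) Unreached endpoint = highest concentration. Abbreviation: GI50, concentration required for 50% inhibition of growth. TGI: total growth inhibition.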 Bounds are passed on as bounds.

Take `COc1cc2nc(-c3ccc(C(F)(F)F)cc3)cc(OCCCN3CCC(O)CC3)c2cc1OC`: the GI50 was 1.43 µM in [1]; 2.28 µM in [2]; 1.8 µM in test [3]; 0.671 µM in test [4]; 6.87 µM in [5]; 2.71 µM in test [6]. The GI50 is 4.07 µM in test [7], 3.27 µM in [8] and 0.535 µM in test [9]. Moreover, the TGI in test [1] is 4.72 µM; in test [2], 6.5 µM; in test [3], 15 µM; in test [4], 17.2 µM; in [5], 24 µM; in test [6] it was 14.6 µM. The TGI in test [7] was found to be 19.9 µM; in test [8], 18.4 µM; in test [9], 2.26 µM.

As for `COc1ccc(C2=CSc3cc(Cl)c(C)cc3S(=O)(=O)N2C(C)=O)cc1`, the GI50 in test [1] was 19.9 µM; in [2] it was 36.2 µM; in test [3], 47.2 µM; in test [4], 21.3 µM; in test [5], 23.1 µM; in [6] it was 51.2 µM. The values for the GI50 in [7], in test [8] and in test [9] were 27.1 µM, 2.13 µM and 49.1 µM, respectively. In addition, the TGI in test [1] was 48.5 µM; in test [2] it was over 100 µM; in [3], over 100 µM; in test [4], 52.5 µM; in [5], 92.2 µM; in test [6] it was over 100 µM. For the same compound, the figures for the TGI in test [7], in test [8] and in [9] were 69.5 µM, over 100 µM and over 100 µM, respectively.

Turning to `Cc1cnc(NC(=O)C(Cc2ccccc2)NC(=O)c2ccccc2)s1` (configuration not stated), the GI50 in test [1] was 1.69 µM; in test [2], 1.14 µM; in [3] it was 10 µM; in [4] it was 2.96 µM; in test [5] it was 3.82 µM; in test [6], 3.98 µM. In addition, the GI50 in [7] is 1.83 µM; in test [8] it was 24.1 µM; in test [9] it was 1.75 µM. In addition, the TGI in test [1] amounted to 3.85 µM; in test [2] it was 3.16 µM; in [3], 28 µM; in test [4], 11.9 µM; in [5] it was 14.7 µM; in test [6], 18.9 µM. For the same compound, the TGI in test [7] was 5 µM; in test [8] it was 95.4 µM; in [9], 3.95 µM.

With `COc1ccc2c(c1)C(=O)/C(=C/c1ccc(OCC(=O)Nc3nccs3)cc1)O2`, the GI50 was 2.93 µM in test [1]; 18 µM in test [2]; 0.491 µM in test [3]; 2.75 µM in [4]; 0.431 µM in test [5]; 0.215 µM in test [6]. The GI50 is 15.2 µM in test [7], 2.09 µM in [8] and 3.03 µM in [9]. Moreover, the TGI in test [1] was determined as 16.3 µM; in test [2], 36.6 µM; in test [3], 26 µM; in [4], 10.7 µM; in test [5], 18.8 µM; in test [6], 0.374 µM. For the same compound, the TGI in [7] was 31.7 µM; in test [8], over 100 µM; in test [9] it was 13.5 µM.

With `CC(C)c1ccc(C(C)C(=O)N(CC2=C(C(C)c3ccccn3)c3ccccc3C2)C(C)C)cc1` (configuration not stated), the GI50 in test [1] was 1.97 µM; in test [2], 3.43 µM; in test [3], 5.26 µM; in [4], 1.94 µM; in [5] it was 3.36 µM; in [6], 1.53 µM. Also, the GI50 in test [7] is 4.52 µM; in [8] it was 2.46 µM; in test [9], 3.93 µM. Besides, the TGI in test [1] is 4.62 µM; in test [2], 38.3 µM; in test [3], over 100 µM; in [4], 8.02 µM; in test [5], 12.2 µM; in test [6], 7.29 µM. Besides, the TGI was found to be 39.1 µM in test [7], 13.1 µM in [8] and 15.6 µM in test [9].

For `NC1CCC(Nc2nc(NCc3ccc(-c4ccco4)nc3)c3ncn(C4CCCC4)c3n2)CC1` (configuration not stated), the GI50 is 0.0913 µM in [1]; 0.0277 µM in test [2]; 0.0238 µM in test [3]; 0.0324 µM in [4]; 0.0107 µM in test [5]; 0.17 µM in [6]. Moreover, the GI50 was 0.0316 µM in [7], 0.0222 µM in test [8] and 0.0213 µM in test [9]. Besides, the TGI in test [1] was found to be 1.02 µM; in test [2], 0.088 µM; in [3] it was 0.0806 µM; in test [4] it was 11.1 µM; in [5], 0.086 µM; in test [6] it was 0.747 µM. Further, the TGI in test [7] was found to be 0.627 µM; in [9], 0.193 µM.

Take `CSc1ccccc1C#C/C=C\C#Cc1ccccc1N1CCCC1=O`: the TGI in test [1] was over 18.3 µM; in [2], over 50 µM; in test [3], over 50 µM; in test [4], over 50 µM; in test [5] it was over 17.6 µM; in test [6], over 50 µM. For the same compound, the TGI in test [7] is over 33.8 µM; in test [8] it was over 17.6 µM; in test [9] it was over 50 µM. Besides, the GI50 is over 12.5 µM in test [2], over 15.8 µM in test [3] and over 12.3 µM in test [9].

Consider `O=C(NCCNc1nccc(-c2c(-c3cccc(O)c3)nc3sccn23)n1)c1ccccc1O`, for which the GI50 in test [1] is 1.47 µM; in test [2], 0.473 µM; in [3], 9.04 µM; in test [4] it was 3.42 µM; in [5], 4.41 µM; in test [6] it was 5 µM. Besides, the GI50 in [7] is 5.67 µM; in test [8], 4.87 µM; in test [9], 0.342 µM. Further, the TGI in [1] was determined as 5.21 µM; in [2], 11.2 µM; in [3], 42.1 µM; in test [4] it was 14.9 µM; in test [5], 15.7 µM; in [6], 19.8 µM. For the same compound, the values for the TGI in [7], in [8] and in [9] were 22.5 µM, over 52.2 µM and 13.6 µM, respectively.
